In PMC9532951, “Identification and characterization of a novel SNAT2 (SLC38A2) inhibitor reveals synergy with glucose transport inhibition in cancer cells” (Frontiers in Pharmacology, 2022):
Values joined by “and” are separate entries in the source; they are usually repeats but may differ in a detail not shown here. Identical values can stand only once.

Columns and labels:
Type in all cases: cell-based, human
SNAT2 = test: Radiolabelled proline uptake in amino acid depleted SKOV3 cells
Protocol: (§1) Functional characterisation of plasma membrane transporters in human cancer cells was determined at 37°C using an array of radiolabelled amino acid substrates. Modified Hanks HEPES-buffered salts solution (mHBSS; 137 mM NaCl; 5.4 mM KCl; 2.7 mM K2HPO4; 1 mM CaCl2; 0.5 mM MgCl2; 0.44 mM KH2PO4; 0.4 mM MgSO4; 5 mM D-glucose; 5 mM HEPES; pH 7.4) was used to wash and incubate cells where sodium dependent transport was measured, while N-methyl-D-glucamine (NMDG) and potassium salts substituted sodium in NMDG mHBSS to measure sodium independent uptake. For the assay, cells were seeded in 35 mm dishes and, once confluent, were washed thrice with warm mHBSS solution and incubated with mHBSS containing an 100 µM amino acid at a final specific activity of ≥2000 cpm/nmol (U-[^14C]amino acids were from PerkinElmer). After 6 min, cells were washed thrice with ice-cold mHBSS, lysed with 500 µl of 0.1 M HCl, detached with a cell scraper and triturated. A 400 µl aliquot was used for scintillation counting, while the remainder was saved for protein mass quantification by Bradford assay. Transport rates were normalised to the protein content of the culture dish.
(§2) IC50 were calculated using equation y=ymax(1−x/x+IC50)

HCC1806 cells = test: [14C]alanine uptake in non-depleted HCC1806 cells; settings: amino acid replete HCC1806 cells
Protocol: as §1

SNAT1 and SNAT2 = test: FMP assay: inhibition of glutamine-induced membrane depolarisation in amino acid depleted HCC1806 cells
Protocol: The FLIPR Membrane Potential Blue Explorer Kit (Molecular Devices) was used to characterise inhibitors and to optimise a high-throughput compound screen. Cells were seeded at approximately 60,000 cells/well on a 96-well plate and allowed to attach and grow overnight in a cell incubator. […] Cells were then washed once with mHBSS and incubated with 50 µl of the mHBSS-resuspended FMP assay dye and 50 µl of mHBSS (with or without inhibitors) and incubated at room temperature for 30 min. The plate was then placed in an EnSpire Multimode plate reader (PerkinElmer) and four sequential measurements of fluorescence were recorded as a baseline reference. Immediately after the baseline measurements were taken, 25 µl of 5 mM glutamine dissolved in mHBSS was injected into each well and the plate was shaken orbitally for 5 s before a series of consecutive fluorescence measurements were taken. The excitation wavelength was set to 530 nm and the emission was detected at 565 nm. The Δ fluorescent signal reported in the figures was taken 30 s after substrate addition. After the assay was complete, the liquid content of the plate was carefully removed, and the cell monolayer inspected to ensure it remained intact throughout the course of the assay.
as §2

[1] = HCC1806, second column group headed UNINDUCED (c11-c19), t=-30 s, glutamine introduced at t=0, replicates 1-3
[2] = HCC1806 UNINDUCED (c1-c9), t=0 s
[3] = HCC1806 UNINDUCED (c1-c9), t=15 s
[4] = HCC1806 UNINDUCED (c1-c9), t=30 s
[5] = HCC1806 UNINDUCED (c1-c9), t=45 s
[6] = HCC1806 UNINDUCED (c1-c9), t=60 s
[7] = HCC1806 UNINDUCED (c1-c9), t=75 s
[8] = HCC1806 UNINDUCED (c1-c9), t=90 s
[9] = HCC1806 UNINDUCED (c1-c9), t=105 s
[10] = HCC1806 UNINDUCED (c1-c9), t=120 s
[11] = HCC1806 UNINDUCED (c1-c9), t=135 s
[12] = HCC1806 UNINDUCED (c1-c9), t=-15 s
[13] = HCC1806 UNINDUCED (c1-c9), t=-30 s, glutamine introduced at t=0, replicates 1-3
[14] = second group headed UNINDUCED (c11-c19), t=0 s
[15] = second group headed UNINDUCED (c11-c19), t=15 s
[16] = second group headed UNINDUCED (c11-c19), t=30 s
[17] = second group headed UNINDUCED (c11-c19), t=45 s
[18] = second group headed UNINDUCED (c11-c19), t=60 s
[19] = second group headed UNINDUCED (c11-c19), t=75 s
[20] = second group headed UNINDUCED (c11-c19), t=90 s
[21] = second group headed UNINDUCED (c11-c19), t=105 s
[22] = second group headed UNINDUCED (c11-c19), t=120 s
[23] = second group headed UNINDUCED (c11-c19), t=135 s
[24] = second group headed UNINDUCED (c11-c19), t=-15 s

SMILES | inhibition of [14C]alanine uptake (HCC1806 cells) | FMP fluorescence reading (SNAT1 and SNAT2; [1]) | FMP fluorescence reading (SNAT1 and SNAT2; [2]) | FMP fluorescence reading (SNAT1 and SNAT2; [3]) | FMP fluorescence reading (SNAT1 and SNAT2; [4]) | FMP fluorescence reading (SNAT1 and SNAT2; [5]) | FMP fluorescence reading (SNAT1 and SNAT2; [6]) | FMP fluorescence reading (SNAT1 and SNAT2; [7]) | FMP fluorescence reading (SNAT1 and SNAT2; [8]) | FMP fluorescence reading (SNAT1 and SNAT2; [9]) | FMP fluorescence reading (SNAT1 and SNAT2; [10]) | FMP fluorescence reading (SNAT1 and SNAT2; [11]) | FMP fluorescence reading (SNAT1 and SNAT2; [12]) | FMP fluorescence reading (SNAT1 and SNAT2; [13]) | FMP fluorescence reading (SNAT1 and SNAT2; [14]) | FMP fluorescence reading (SNAT1 and SNAT2; [15]) | FMP fluorescence reading (SNAT1 and SNAT2; [16]) | FMP fluorescence reading (SNAT1 and SNAT2; [17]) | FMP fluorescence reading (SNAT1 and SNAT2; [18]) | FMP fluorescence reading (SNAT1 and SNAT2; [19]) | other results
C[N+](C)(C)CC(=O)O [Betaine, betaine] | about 10% | – | – | – | – | – | – | – | – | – | – | – | – | – | – | – | – | – | – | – | inhibition of proline uptake (SNAT2; 10 mM, 100 µM proline, Figure 4A (24 h starvation)): 30%; inhibition of proline uptake (SNAT2; 10 mM, Figure 4D (15 h starvation)): 60%; Proline uptake (nmol / mg protein x 6 min) (SNAT2; Figure 4A, 10mM, replicates 1-3): 14.3516 nmol / mg protein x 6 min and 14.2805 nmol / mg protein x 6 min and 13.5695 nmol / mg protein x 6 min; Proline uptake (nmol / mg protein x 6 min) (SNAT2; Figure 5B, reference inhibitors, replicates): 7.636 nmol / mg protein x 6 min and 7.165 nmol / mg protein x 6 min and 7.435 nmol / mg protein x 6 min and 7.421 nmol / mg protein x 6 min
Cc1ccc(S(=O)(=O)N(C)c2ccsc2C(=O)NCc2ccccc2C(F)(F)F)cc1 [Compound 57_E, 3-(N-methyl (4-methylphenyl)sulfonamido)-N-(2-trifluoromethylbenzyl)thiophene-2-carboxamide] | about 10% | – | – | – | – | – | – | – | – | – | – | – | – | – | – | – | – | – | – | – | inhibition of proline uptake (SNAT2; 30 µM, Figure 4A): inhibition equivalent to betaine; Proline uptake (nmol / mg protein x 6 min) (SNAT2; Figure 4A, screening compounds, replicates 1-3): 12.1271 nmol / mg protein x 6 min and 12.3527 nmol / mg protein x 6 min and 11.9613 nmol / mg protein x 6 min; Proline uptake (nmol / mg protein x 6 min) (SNAT2; Figure 5B, 0.03 uM): 13.4934 nmol / mg protein x 6 min and 12.6179 nmol / mg protein x 6 min and 11.806 nmol / mg protein x 6 min and 12.3756 nmol / mg protein x 6 min; Proline uptake (nmol / mg protein x 6 min) (SNAT2; Figure 5B, 0.1 uM): 11.4589 nmol / mg protein x 6 min and 11.5974 nmol / mg protein x 6 min and 12.2114 nmol / mg protein x 6 min and 11.4952 nmol / mg protein x 6 min; Proline uptake (nmol / mg protein x 6 min) (SNAT2; Figure 5B, 0.3 uM): 9.658 nmol / mg protein x 6 min and 10.0504 nmol / mg protein x 6 min and 12.5202 nmol / mg protein x 6 min and 8.873 nmol / mg protein x 6 min; Proline uptake (nmol / mg protein x 6 min) (SNAT2; Figure 5B, 1 uM): 8.923 nmol / mg protein x 6 min and 10.4357 nmol / mg protein x 6 min and 8.533 nmol / mg protein x 6 min; Proline uptake (nmol / mg protein x 6 min) (SNAT2; Figure 5B, 3 uM): 6.737 nmol / mg protein x 6 min and 7.879 nmol / mg protein x 6 min and 6.95 nmol / mg protein x 6 min and 7.052 nmol / mg protein x 6 min; Proline uptake (nmol / mg protein x 6 min) (SNAT2; Figure 5B, 10 uM): 6.707 nmol / mg protein x 6 min and 7.214 nmol / mg protein x 6 min and 6.31 nmol / mg protein x 6 min and 7.23 nmol / mg protein x 6 min
NC(=O)CC[C@H](N)C(=O)O [Glutamine, glutamine] | – | 48604 and 53579 and 57451 | 80152 and 93008 and 95175 | 81192 and 94874 and 97430 | 81634 and 95549 and 97622 | 82112 and 96387 and 97827 | 82774 and 96256 and 98257 | 83212 and 96832 and 98303 | 83103 and 97466 and 98281 | 83167 and 97358 and 97714 | 83214 and 97405 and 97828 | 83426 and 97359 and 98137 | 80647 and 93663 and 95145 | 79899 and 92924 and 94884 | 48277 and 53613 and 57279 | 87410 and 95992 and 106048 | 92514 and 100953 and 110310 | 96611 and 104700 and 113605 | 98488 and 108054 and 116646 | 100460 and 110105 and 118023 | FMP fluorescence reading (SNAT1 and SNAT2; [20]): 101322 and 111642 and 119920; FMP fluorescence reading (SNAT1 and SNAT2; [21]): 102745 and 112818 and 120694; FMP fluorescence reading (SNAT1 and SNAT2; [22]): 102428 and 112661 and 120909; FMP fluorescence reading (SNAT1 and SNAT2; [23]): 102525 and 112308 and 120142; FMP fluorescence reading (SNAT1 and SNAT2; [24]): 48090 and 53580 and 57674
N[C@@H](CCC(=O)NO)C(=O)O [GHX, L-glutamic acid γ-monohydroxamate] | – | 80140 and 84104 and 92453 | 95009 and 106958 and 105072 | 92832 and 105585 and 105488 | 92285 and 105041 and 105362 | 92217 and 104713 and 105477 | 92501 and 104852 and 105149 | 92072 and 104235 and 104746 | 91505 and 104029 and 104931 | 91498 and 103606 and 105160 | 91509 and 103340 and 104992 | 91754 and 103170 and 104515 | 94947 and 106966 and 104913 | 94749 and 106497 and 104978 | 79859 and 84357 and 91947 | 80630 and 83515 and 91899 | 79854 and 83032 and 91748 | 79700 and 82661 and 90895 | 79052 and 82273 and 90365 | 78466 and 81641 and 89825 | Mean (delta) fluorescence signal (%) (SNAT1 and SNAT2; GHX concentration 0.005): 92.4453%; Mean (delta) fluorescence signal (%) (SNAT1 and SNAT2; GHX concentration 0.05): 88.1978%; Mean (delta) fluorescence signal (%) (SNAT1 and SNAT2; GHX concentration 0.1): 81.9185%; Mean (delta) fluorescence signal (%) (SNAT1 and SNAT2; GHX concentration 0.2): 62.0593%; Mean (delta) fluorescence signal (%) (SNAT1 and SNAT2; GHX concentration 0.5): 45.7050%; Mean (delta) fluorescence signal (%) (SNAT1 and SNAT2; GHX concentration 1): 28.4974%; Mean (delta) fluorescence signal (%) (SNAT1 and SNAT2; GHX concentration 3): 5.9801%; IC50 (SNAT1 and SNAT2; glutamine induced depolarisation, HCC1806 AA- (24h), n = 3): 330 ± 160 µM; FMP fluorescence reading (SNAT1 and SNAT2; [20]): 78374 and 80769 and 89707; FMP fluorescence reading (SNAT1 and SNAT2; [21]): 77755 and 80422 and 88694; FMP fluorescence reading (SNAT1 and SNAT2; [22]): 77065 and 79988 and 88225; FMP fluorescence reading (SNAT1 and SNAT2; [23]): 76289 and 79358 and 87841; FMP fluorescence reading (SNAT1 and SNAT2; [24]): 80373 and 84318 and 91914
